Values joined by “and” are separate entries in the source; they are usually repeats but may differ in a detail not shown here. Equal entries are not always repeated.
Target: T1, Cholesteryl ester transfer protein (Homo sapiens, UniProt P11597)
T1 sequence (P11597 whole entry): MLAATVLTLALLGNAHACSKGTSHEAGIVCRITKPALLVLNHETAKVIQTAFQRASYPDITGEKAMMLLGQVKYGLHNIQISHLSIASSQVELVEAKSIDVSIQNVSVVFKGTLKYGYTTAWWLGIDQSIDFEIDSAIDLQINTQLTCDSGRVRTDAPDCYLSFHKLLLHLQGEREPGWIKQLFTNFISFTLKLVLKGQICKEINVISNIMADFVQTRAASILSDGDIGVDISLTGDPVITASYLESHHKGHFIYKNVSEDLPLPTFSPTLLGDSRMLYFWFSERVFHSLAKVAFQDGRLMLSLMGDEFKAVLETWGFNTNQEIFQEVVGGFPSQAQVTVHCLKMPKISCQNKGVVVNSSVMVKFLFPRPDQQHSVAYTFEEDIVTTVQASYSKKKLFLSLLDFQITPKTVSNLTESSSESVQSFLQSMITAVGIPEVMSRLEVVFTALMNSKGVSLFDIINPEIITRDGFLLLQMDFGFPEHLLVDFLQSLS
Test: CETP Inhibition Assay: A recombinant human CETP protein (manufactured by Roar Biomedical Inc.; 4.5 ng), the acceptor lipoprotein described in (2) above (32.5 μg) and 5,5'-dithio-bis-(2-nitrobenzoic acid) (7 mM, 15 μl) were taken in a 96 well plate and the total amount of the mixture was adjusted to 48.5 μl with the PBS solution. The test compound [DMSO solution (concentration: 0.15, 0.5, 1.5, 5, 15, 50, 150 and 500 μM); 1.5 μl] was added to each well and the mixture was incubated in a thermostatic bath at 37 °C. for 60 minutes. The reconstituted HDL (50 μl) described in (1) above was added to each well and the mixture was reacted in a thermostatic bath at 37 °C. for 60 minutes. The 96 well plate was moved onto ice and a precipitation reagent [a mixed solution of magnesium chloride (60 mM) and 0.1% dextran sulfate[1/1(v/v)]; 15 μl] was added to each well, and then the mixture was allowed to stand on ice for 15 minutes. The reaction solution (80 μl) in each well was moved to a filter plate and centrifuged at 1500 rpm for 1 minute, and the filtrate which passed through the filter was designated as the HDL fraction and the radioactivity thereof was measured with a scintillation counter.

Question: Which IC50 does the source give for CC(C)(O)CCOc1cnc(N2CCC(c3nc4c(c(C5CCC(F)(F)CC5)c3[C@@H](F)c3ccc(C(F)(F)F)cc3)[C@@H](O)CC(C)(C)C4)CC2)nc1 here?
Answer: 17.8 nM and 21.3 nM
